Assay results from US20240124422A1, “MUTANT PI3K-ALPHA INHIBITORS AND THEIR USE AS PHARMACEUTICALS” (Prelude Therapeutics Incorporated, priority 2022, published 2024).
pIC50: −log10 of the molar value.

System: phosphorylation of AKT on Ser473 as a readout of the PI3K pathway in T-47D (heterozygous PIK3CA H1047R) cells
Experiment: PI3K pathway activation assay, pAKT Ser473 HTRF, T-47D cells
Type: cell-based
Settings: Homo sapiens, T47D, 2 h, two hours of treatment
Procedure: The inhibitory activity of compounds was evaluated by measuring phosphorylation of AKT on Ser473 as a readout of the PI3K pathway using HTRF (CisBio catalog number: 64AKSPE). These studies were conducted in the T-47D (heterozygous PIK3CA H1047R) and SKBR3 (PIK3CA WT) cell lines. Cells were maintained in a 37° C. incubator at 5% CO2 in the following media: T-47D: RPMI 1640, ATCC© Modification (Gibco, A10491-01) supplemented with 10% v/v FBS (Gibco, 26140-079), 1% penicillin streptomycin (Gibco, 15140-122), and 7.4 ug/mL insulin (MilliporeSigma, I9278); SKBR3: McCoy's 5a (Modified) Medium (Gibco, 16600-082) supplemented with 10% v/v FBS (Gibco, 26140-079). Cells were seeded in 384-well plates at a density of 4,000 cells/well. Compounds dissolved in DMSO were added using a digital dispense (D300E, Tecan) 10-point serial dilution. After two hours of treatment, cells were lysed for thirty minutes and then incubated with detection reagents per HTRF kit material and manufacturer's instructions. Fluorescence signal was measured with a multimode plate reader (Envision 2105, Perkin Elmer). Fluorescent signal was normalized to background and DMSO controls to obtain percent inhibition/activity for each compound.

Row | Compound | pIC50
1 | CC(Nc1ccccc1C(=O)O)c1cccc2c(=O)n(C)c(N3Cc4ccccc4C3)nc12 (stereo not shown) [Example 72, 2-((1-(2-(Isoindolin-2-yl)-3-methyl-4-oxo-3,4-dihydroquinazolin-8-yl)ethyl)amino)benzoic acid] | 5.00 to 6.30
2 | Cc1cc(C(C)Nc2ccccc2C(=O)O)c2nc(N3CCC(F)(F)CC3)n(C)c(=O)c2c1 (single isomer, unassigned) [Example 37, 2-((1-(2-(4,4-difluoropiperidin-1-yl)-3,6-dimethyl-4-oxo-3,4-dihydroquinazolin-8-yl)ethyl)amino)benzoic acid] | > 6.30
3 | CCC(Nc1ccccc1C(=O)O)c1cc(C)cc2c(=O)n(C)c(N3CC4CC4C3)nc12 (stereo not shown) [Example 97, 2-((1-(2-(3-azabicyclo[3.1.0]hexan-3-yl)-3,6-dimethyl-4-oxo-3,4-dihydro-quinazolin-8-yl)propyl)amino)benzoic acid] | 5.00 to 6.30
4 | Cc1cc(C(C)Nc2ccccc2C(=O)O)c2nc(N3CCS(=O)(=O)CC3)n(C)c(=O)c2c1 (stereo not shown) [Example 56, 2-((1-(2-(1,1-dioxidothiomorpholino)-3,6-dimethyl-4-oxo-3,4-dihydroquinazolin-8-yl)ethyl)amino)benzoic acid] | 5.00 to 6.30
5 | CC(Nc1ccccc1C(=O)O)c1cc(Br)cc2c(=O)n(C)c(N3CCC(F)(F)CC3)nc12 (stereo not shown) [Example 74, 2-((1-(6-Bromo-2-(4,4-difluoropiperidin-1-yl)-3-methyl-4-oxo-3,4-dihydroquinazolin-8-yl)ethyl)amino)benzoic acid] | > 6.30
6 | Cc1cc(C(C)Nc2ccccc2C(=O)O)c2nc(N3C4CCC3CC4)n(C)c(=O)c2c1 (stereo not shown) [Example 111, 2-[1-[2-(7-azabicyclo[2.2.1]heptan-7-yl)-3,6-dimethyl-4-oxoquinazolin-8-yl]ethylamino]benzoic acid] | > 6.30
7 | CC(=O)N1C[C@H]2CN(c3nc4c(C(C)Nc5ccccc5C(=O)O)cc(C)cc4c(=O)n3C)C[C@@H]2C1 (stereo partly drawn) [Example 66, 2-((1-(2-((3aR,6aR)-5-Acetylhexahydropyrrolo[3,4-c]pyrrol-2(1H)-yl)-3,6-dimethyl-4-oxo-3,4-dihydroquinazolin-8-yl)ethyl)amino)benzoic acid] | 5.00 to 6.30
8 | Cc1cc(C(C)Nc2ccccc2C(=O)O)c2nc(N3CCN(C(=O)C45CC(F)(C4)C5)CC3)n(C)c(=O)c2c1 (stereo not shown) [Example 92, 2-((1-(2-(4-(3-Fluorobicyclo[1.1.1]pentane-1-carbonyl)piperazin-1-yl)-3,6-dimethyl-4-oxo-3,4-dihydroquinazolin-8-yl)ethyl)amino)benzoic acid] | 5.00 to 6.30
9 | Cc1cc(C(C)Nc2ccccc2C(=O)O)c2nc(N3CCC4(CC3)CN(C(=O)OC(C)(C)C)C4)n(C)c(=O)c2c1 (stereo not shown) [Example 108, 2-[1-[3,6-dimethyl-2-[2-[(2-methylpropan-2-yl)oxycarbonyl]-2,7-diazaspiro[3.5]nonan-7-yl]-4-oxoquinazolin-8-yl]ethylamino]benzoic acid] | 5.00 to 6.30
10 | Cc1cc(C(C)Nc2ccccc2C(=O)O)c2nc(N3CC4CC(C4)C3)n(C)c(=O)c2c1 (stereo not shown) [Example 116, 2-((1-(2-(3-Azabicyclo[3.1.1]heptan-3-yl)-3,6-dimethyl-4-oxo-3,4-dihydroquinazolin-8-yl)ethyl)amino)benzoic acid] | > 6.30
11 | Cc1cc(C(C)Nc2cccc(F)c2C(=O)O)c2nc(N3CC4CC4C3)n(C)c(=O)c2c1 (stereo not shown) [Example 121, 2-[1-[2-(3-Azabicyclo[3.1.0]hexan-3-yl)-3,6-dimethyl-4-oxoquinazolin-8-yl]ethylamino]-6-fluorobenzoic acid] | > 6.30
12 | Cc1cc(C(C)Nc2ccccc2C(=O)O)c2nc(N3CCN(C(=O)c4ccc(C)nc4)CC3)n(C)c(=O)c2c1 (stereo not shown) [Example 94, 2-((1-(3,6-Dimethyl-2-(4-(6-methylnicotinoyl)piperazin-1-yl)-4-oxo-3,4-dihydro-quinazolin-8-yl)ethyl)amino)benzoic acid] | > 6.30
13 | Cc1cc(C(C)Nc2cc(F)ccc2C(=O)O)c2nc(N3Cc4ccccc4C3)n(C)c(=O)c2c1 (stereo not shown) [Example 32, 4-fluoro-2-((1-(2-(isoindolin-2-yl)-3,6-dimethyl-4-oxo-3,4-dihydroquinazolin-8-yl)ethyl)amino)benzoic acid] | > 6.30
14 | C=CC(=O)Nc1c(C)cc(C(C)Nc2ccccc2C(=O)O)c2nc(N3CC4CC4C3)n(C)c(=O)c12 (stereo not shown) [Example 38, 2-((1-(5-acrylamido-2-(3-azabicyclo[3.1.0]hexan-3-yl)-3,6-dimethyl-4-oxo-3,4-dihydroquinazolin-8-yl)ethyl)amino)benzoic acid] | 5.00 to 6.30
15 | CONC(=O)c1ccccc1NC(C)c1cc(C)cc2c(=O)n(C)c(N3Cc4ccccc4C3)nc12 (stereo not shown) [Example 5, 2-((1-(2-(isoindolin-2-yl)-3,6-dimethyl-4-oxo-3,4-dihydroquinazolin-8-yl)ethyl)amino)-N-methoxybenzamide] | 5.00 to 6.30
16 | Cc1cc(C(C)Nc2ccccc2C(=O)O)c2nc(N3CCC(C)(C)CC3)n(C)c(=O)c2c1 (stereo not shown) [Example 17, 2-((1-(2-(4,4-dimethylpiperidin-1-yl)-3,6-dimethyl-4-oxo-3,4-dihydroquinazolin-8-yl)ethyl)amino)benzoic acid] | > 6.30
17 | Cc1cc(C(C)Nc2ccccc2C(=O)O)c2nc(N3CC4CC4C3)n(C)c(=O)c2c1C#N (stereo not shown) [Example 14, 2-((1-(2-(3-azabicyclo[3.1.0]hexan-3-yl)-5-cyano-3,6-dimethyl-4-oxo-3,4-dihydroquinazolin-8-yl)ethyl)amino)benzoic acid] | 5.00 to 6.30
18 | Cc1cc(C(C)Nc2ccccc2C(=O)O)c2nc(C3CCCN3S(=O)(=O)F)n(C)c(=O)c2c1 (stereo not shown) [Example 73, 2-[1-[2-(1-Fluorosulfonylpyrrolidin-2-yl)-3,6-dimethyl-4-oxoquinazolin-8-yl]ethylamino]benzoic acid] | 5.00 to 6.30
19 | Cc1cc(C(C)Nc2ccc(C(F)(F)F)cc2C(=O)O)c2nc(N3Cc4ccccc4C3)n(C)c(=O)c2c1 (stereo not shown) [Example 30, 2-((1-(2-(isoindolin-2-yl)-3,6-dimethyl-4-oxo-3,4-dihydroquinazolin-8-yl)ethyl)amino)-5-(trifluoromethyl)benzoic acid] | 5.00 to 6.30
20 | CC(Nc1ccccc1C(=O)O)c1cc(C2CC2)cc2c(=O)n(C)c(N3CC4CC4C3)nc12 (stereo not shown) [Example 76, 2-((1-(2-(3-Azabicyclo[3.1.0]hexan-3-yl)-6-cyclopropyl-3-methyl-4-oxo-3,4-dihydroquinazolin-8-yl)ethyl)amino)benzoic acid] | 5.00 to 6.30
21 | Cc1cc(C(C)Nc2ccc(C(F)(F)F)nc2C(=O)O)c2nc(N3CC4CC4C3)n(C)c(=O)c2c1 (stereo not shown) [Example 80, 3-((1-(2-(3-azabicyclo[3.1.0]hexan-3-yl)-3,6-dimethyl-4-oxo-3,4-dihydro-quinazolin-8-yl)ethyl)amino)-6-(trifluoromethyl)picolinic acid] | 5.00 to 6.30
22 | COc1cc(C(C)Nc2ccccc2C(=O)O)c2nc(N3CC4CC4C3)n(C)c(=O)c2c1 (stereo not shown) [Example 77, 2-((1-(2-(3-azabicyclo[3.1.0]hexan-3-yl)-6-methoxy-3-methyl-4-oxo-3,4-dihydroquinazolin-8-yl)ethyl)amino)benzoic acid] | 5.00 to 6.30

Same assay, conditions: two hours of treatment, read-out: T47D pAKT IC50

Row | Compound | pIC50
23 | Cc1cc(C(C)Nc2ccccc2C(=O)O)c2nc(N3CCC(c4ccccc4)C3)n(C)c(=O)c2c1 (single isomer, unassigned) [Example 53, 2-[1-[3,6-dimethyl-4-oxo-2-(3-phenylpyrrolidin-1-yl)quinazolin-8-yl]ethylamino]benzoic acid] | 5.00 to 6.30
24 | Cc1cc(C(C)Nc2ccccc2C(=O)O)c2nc(N3C[C@@H]4C(NC(=O)OC5CC5)[C@@H]4C3)n(C)c(=O)c2c1 (stereo partly drawn) [Example 63, 2-((1-(2-((1R,5S,6s)-6-((cyclopropoxycarbonyl)amino)-3-azabicyclo[3.1.0]hexan-3-yl)-3,6-dimethyl-4-oxo-3,4-dihydroquinazolin-8-yl)ethyl)amino)benzoic acid] | 5.00 to 6.30
25 | CON(C)C(=O)C1[C@H]2CN(c3nc4c(C(C)Nc5ccccc5C(=O)O)cc(C)cc4c(=O)n3C)C[C@@H]12 (stereo partly drawn) [Example 83, 2-((1-(2-((1R,5S,6R)-6-(Methoxy(methyl)carbamoyl)-3-azabicyclo[3.1.0]hexan-3-yl)-3,6-dimethyl-4-oxo-3,4-dihydroquinazolin-8-yl)ethyl)amino)benzoic acid] | > 6.30
26 | Cc1cc(C(C)Nc2ccccc2C(=O)O)c2nc(N3C[C@@H]4C(NC(=O)OCc5ccccc5)[C@@H]4C3)n(C)c(=O)c2c1 (stereo partly drawn) [Example 59, 2-((1-(2-((1R,5S,6s)-6-(((benzyloxy)carbonyl)amino)-3-azabicyclo[3.1.0]hexan-3-yl)-3,6-dimethyl-4-oxo-3,4-dihydroquinazolin-8-yl)ethyl)amino)benzoic acid] | 5.00 to 6.30
27 | Cc1cc(C(C)Nc2ccccc2C(=O)O)c2nc(N3CCC(C)(C)CC3)n(C)c(=O)c2c1 (stereo not shown) [Example 3, 2-((1-(2-(4,4-dimethylpiperidin-1-yl)-3,6-dimethyl-4-oxo-3,4-dihydroquinazolin-8-yl)ethyl)amino)benzoic acid] | 5.00 to 6.30
28 | Cc1cc(C(C)Nc2ccccc2C(=O)O)c2nc(N3C[C@@H]4C(NC(=O)OCCN5CCOCC5)[C@@H]4C3)n(C)c(=O)c2c1 (stereo partly drawn) [Example 61, 2-((1-(3,6-dimethyl-2-((1R,5S,6s)-6-(((2-morpholinoethoxy)carbonyl)amino)-3-azabicyclo[3.1.0]hexan-3-yl)-4-oxo-3,4-dihydroquinazolin-8-yl)ethyl)amino)benzoic acid] | 5.00 to 6.30
